# How the values were obtained:
# [1] = target: T1, purified and unphosphorylated T315I Abl kinase domain (ABL_T315I_0P) (Mus musculus, UniProt P00520, T315I); assay: c-Abl T315I (unphosphorylated kinase domain) pyruvate kinase/lactate dehydrogenase coupled enzyme assay; format: biochemical; conditions: 10 μM ATP
# T1 construct: The c-Abl T3151 KD (kinase domain) was purified as follows; Met-Ser-Leu (vector-derived residues) (N); made in house; host or cells: E. coli BL21(DE3) strains (Codon+RIL, or pSA0145 for the lambda phosphatase co-expression plasmid)
# T1 sequence (P00520 242-493 T315I limits assumed): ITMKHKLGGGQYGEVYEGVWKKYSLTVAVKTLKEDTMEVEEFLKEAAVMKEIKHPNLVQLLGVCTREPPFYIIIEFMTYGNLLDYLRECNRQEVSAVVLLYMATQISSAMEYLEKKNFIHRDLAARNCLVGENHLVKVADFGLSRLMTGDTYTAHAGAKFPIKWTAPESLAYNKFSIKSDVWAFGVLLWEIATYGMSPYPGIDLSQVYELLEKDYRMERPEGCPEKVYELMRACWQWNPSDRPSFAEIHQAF
# Text: Although the first of these examples uses the kinase domain of a mutant form of Abl T315I (“Abl T315I KD”), the kinase assays may use various forms of mutant and wild type enzymes, including, for example, the entire protein, the kinase domain, or a portion thereof (e.g. Abl Y393F). The kinases used in the assays may also be of varying phosphorylation states. In the c-Abl example, a mutant kinase at a zero phosphorylation state was used.
# c-Abl Pyruvate Kinase/Lactate Dehydrogenase Coupled Enzyme Assay
# In the c-Abl Pyruvate Kinase (PK)/Lactate Dehydrogenase (LDH) Coupled Assay the protein kinase dependant phosphorylation of a substrate peptide was coupled to the oxidation of NADH. The oxidation of NADH to NAD+ was detected by monitoring a decrease in absorbance at 340 nm.
# Materials: Abl substrate peptide=EAIYAAPFAKKK-OH (SEQ ID NO: 1) (Biopeptide, San Diego, Calif.); […]NADH (Sigma Cat#N-8129, FW=709.4); 2M MgCl2; 1M HEPES buffer, pH 7.5; Phosphoenolpyruvate (PEP) (Sigma Cat#P-7002, FW=234); Lactate dehydrogenase (LDH) (Worthington Biochemical Cat#2756); Pyruvate Kinase (PK) (Sigma Cat#P-9136); ATP (Sigma Cat#A-3377, FW=551); Greiner 384-well UV star plate; and purified and unphosphorylated T3151 Abl kinase domain.
# Stock Solutions: 10 mM NADH (7.09 mg/ml in miliQH2O) made fresh daily; 10 mM Abl substrate peptide (13.4 mg/ml in miliQH2O) stored at −20° C.; 100 mM HEPES buffer, pH 7.5 (5 ml 1M stock+45 ml miliQH2O); 100mM MgCl2 (5 ml 2M MgCl2+95 ml dH2O); 100 mM PEP (23.4 mg/ml in dH2O) stored at −20° C.; 10mM ATP (5.51 mg/ml in dH2O) stored at −20° C. (diluted 50 μl into total of 10 ml miliQH2O daily=50 μM ATP working stock); 1000 U/ml PK (U/mg varies with lot) flash-frozen under liquid N2 and stored at −80° C.; and 1000 U/ml LDH (U/mg varies with lot) flash-frozen under liquid N2 and stored at −80° C.
# Standard Assay Setup for 384-well format (50 μl reaction): 300 μM NADH; 10 mM MgCl2; 2 mM PEP; 45 U/ml PK; 60 U/ml LDH; 200 μM Abl substrate peptide; 2.5 μl test compound (in DMSO); 2 μg/ml Abl kinase domain; 10 μM ATP; 100 mM HEPES buffer. Positive controls contained DMSO with no test compound. Negative controls contained 5 μl of 0.5M EDTA (50 mM in the assay). The dephosphorylated form of the c-Abl T315I mutant was used in the biochemical screening assays. The kinase reaction was initiated at time t=0 by the addition of ATP.
# Activity was measured by following the time-dependent loss of NADH by absorbance spectroscopy at 340 nm. The linear portion of the resulting progress curve was then analyzed by linear regression to get the activity in absorbance units/time, reported as the slope of that best fit line (moles/unit time can be calculated from using molar extinction coefficient for NADH at 340 nm, 6250M^−1 cm^−1).
# Screening data was evaluated using the equation: Z′=1-[3*(σ++σ−)/|μ+−μ−|] (Zhang, et al., 1999 J Biomol Screening 4(2) 67-73), where μ denotes the mean and σ the standard deviation. The subscript designates positive or negative controls. The Z′ score for a robust screening assay should be ≧0.50. The typical threshold=μ+−3*σ+−. Any value that falls below the threshold was designated a “hit”.
# Dose response was analyzed using the equation: y=min+{(max−min)/(1+10^[compound]−logIC50)}, where y is the observed initial slope, max=the slope in the absence of inhibitor, min=the slope at infinite inhibitor, and the IC50 is the [compound] that corresponds to ½ the total observed amplitude (Amplitude=max−min).
# To measure modulation, activation, or inhibition of Abl KD, a test compound was added to the assay at a range of concentrations. Inhibitors may inhibit Abl KD activity at an IC50 in the micromolar range, the nanomolar range, or, for example, in the subnanomolar range.
# An open-reading frame for c-Abl was amplified from a Mus musculus (mouse) cDNA library prepared from freshly harvested mouse liver using a commercially available kit (Invitrogen) by PCR using the following primers: […]
# The c-Abl T3151 KD (kinase domain) was purified as follows. […]
# ABL P210WT BAF3 cells = target: T2, ABL P210WT BAF3 cells (Homo sapiens, UniProt P00519); assay: 96-well XTT cell survival assay, BaF3 ABL P210WT; format: cell-based; conditions: ABL P210 WT, 72 hours, read-out: CELL BIO ABL P210WT BAF3 XTT (IC50)
# T2 construct: ABL P210WT BAF3; fused on or other part: P11274 (Breakpoint cluster region protein)
# Protocol: (§1) MV4-11 and THP cells were maintained in Iscove's Modified Dulbecco's Medium supplemented with 10% fetal bovine serum (FBS) and penicillin/streptomycin, Ba/F3 cells were maintained in RPMI 1640 supplemented with 10% FBS, penicillin/streptomycin and 5 ng/ml recombinant mouse IL-3.
# (§2) Compounds were tested in the following assays in duplicate.
# (§3) 96-well XTT assay: Cells (e.g. BaF3 315I, M3511, or E255K cells) were grown in growth media containing various concentrations of compounds (duplicates) on a 96-well plate for 72 hours at 37° C. The starting cell number was 5000-8000 cells per well and volume was 120 μl. At the end of the 72-hour incubation, 40 μl of XTT labeling mixture (50:1 solution of sodium 3′-[1-(phenylamino-carbonyl)-3,4-tetrazolium]-bis(4-methoxy-6-nitro) benzene sulfonic acid hydrate and Electron-coupling reagent: PMS (N-methyl dibenzopyrazine methyl sulfate) were added to each well of the plate. After an additional 2-6 hours of incubation at 37° C., the absorbance reading at 405 nm with background correction at 650 nm was measured with a spectrophotometer.
# ABL T315I BAF3 cells = target: T3, ABL T315I BAF3 cells (Homo sapiens, UniProt P00519, T315I, cells depend on it); assay: 96-well XTT cell survival assay, BaF3 ABL T315I; format: cell-based; conditions: 72 hours, read-out: CELL BIO ABL T315I BAF3 XTT (IC50)
# T3 construct: ABL T315I BAF3; fused on or other part: P11274 (Breakpoint cluster region protein)
# Protocol: as §1, §2, §3
Compound,ABL_T315I_0P (IC50) [1],GI50 (ABL P210WT BAF3 cells),GI50 (ABL T315I BAF3 cells)
CN(C)C(=O)C(O)c1cc(-c2cnc3[nH]cc(-c4ccccc4F)c3c2Cl)cnc1N (stereo not shown),D (<0.01 μM),100 to 1000 nM,10 to 100 nM
NC(=O)C(O)c1cncc(-c2cnc3[nH]cc(-c4ccccc4F)c3c2Cl)c1 (stereo not shown),D (<0.01 μM),> 1000 nM,> 1000 nM
CNc1ncccc1-c1c[nH]c2ncc(-c3cncc(C(O)C(=O)N(C)C)c3)c(Cl)c12 (stereo not shown),C (0.1-0.01 μM),> 1000 nM,> 1000 nM
CN(C)C(=O)c1cncc(-c2cnc3[nH]cc(-c4ccccc4F)c3c2Cl)c1,D (<0.01 μM),100 to 1000 nM,100 to 1000 nM
CN(C)C(=O)c1cncc(-c2cnc3[nH]cc(-c4ccc(F)cc4)c3c2Cl)c1,C (0.1-0.01 μM),100 to 1000 nM,> 1000 nM
CN(C)C(=O)c1cncc(-c2cnc3[nH]cc(-c4cccc(F)c4F)c3c2Cl)n1,D (<0.01 μM),100 to 1000 nM,100 to 1000 nM
CNC(=O)c1cncc(-c2cnc3[nH]cc(-c4ccccc4F)c3c2Cl)n1,C (0.1-0.01 μM),> 1000 nM,> 1000 nM
OC(c1cncc(-c2cnc3[nH]cc(-c4ccccc4F)c3c2Cl)c1)c1ncccc1F (stereo not shown),D (<0.01 μM),100 to 1000 nM,100 to 1000 nM
"COc1cc(C#N)ccc1-c1c[nH]c2ncc(-c3cnc(N)c(C(=O)N(C)C)c3)c(Cl)c12 [2-Amino-5-[4-chloro-3-(4-cyano-2-methoxy-phenyl)-1H-pyrrolo[2,3-b]pyridin-5-yl]-N,N-dimethyl-nicotinamide]",C (0.1-0.01 μM),–,–
"CN(C)C(=O)C(O)c1cncc(-c2cnc3[nH]nc(-c4ccccc4)c3c2Cl)c1 (stereo not shown) [2-[5-(4-Chloro-3-phenyl-1H-pyrazolo[3,4-b]pyridin-5-yl)-pyridin-3-yl]-2-hydroxy-N,N-dimethyl-acetamide]",B (1.0-0.1 μM),–,–
"COc1ccccc1-c1c[nH]c2ncc(Br)c(NCCO)c12 [2-[5-Bromo-3-(2-methoxy-phenyl)-1H-pyrrolo[2,3-b]pyridin-4-ylamino]-ethanol]",B (1.0-0.1 μM),–,–
"CN(C)C(=O)C(O)c1cncc(-c2cnc3[nH]nc(-c4ccccc4F)c3c2Cl)c1 (stereo not shown) [2-{5-[4-Chloro-3-(2-fluoro-phenyl)-1H-pyrazolo[3,4-b]pyridin-5-yl]-pyridin-3-yl}-2-hydroxy-N,N-dimethyl-acetamide]",B (1.0-0.1 μM),–,–
"CN(C)C(=O)C(=O)c1cncc(-c2cnc3[nH]cc(-c4ccc(F)cc4)c3c2Cl)c1 [2-{5-[4-Chloro-3-(4-fluoro-phenyl)-1H-pyrrolo[2,3-b]pyridin-5-yl]-pyridin-3-yl}-N,N-dimethyl-2-oxo-acetamide]",B (1.0-0.1 μM),–,–
"CC(C)c1ncncc1-c1c[nH]c2ncc(-c3cncc(C(O)C(=O)N(C)C)c3)c(Cl)c12 (stereo not shown) [2-{5-[4-Chloro-3-(4-isopropyl-pyrimidin-5-yl)-1H-pyrrolo[2,3-b]pyridin-5-yl]-pyridin-3-yl}-2-hydroxy-N,N-dimethyl-acetamide]",B (1.0-0.1 μM),–,–
"COc1ccccc1-c1c[nH]c2ncc(-c3cncc(C(O)C(=O)N(C)C)c3)c(N(C)C)c12 (stereo not shown) [2-{5-[4-Dimethylamino-3-(2-methoxy-phenyl)-1H-pyrrolo[2,3-b]pyridin-5-yl]-pyridin-3-yl}-2-hydroxy-N,N-dimethyl-acetamide]",B (1.0-0.1 μM),–,–
"COc1ccccc1-c1c[nH]c2ncc(-c3cnn(C)c3)c(N)c12 [3-(2-Methoxy-phenyl)-5-(1-methyl-1H-pyrazol-4-yl)-1H-pyrrolo[2,3-b]pyridin-4-ylamine]",B (1.0-0.1 μM),–,–
"CSc1c(Br)cnc2[nH]cc(I)c12 [5-Bromo-3-iodo-4-methylsulfanyl-1H-pyrrolo[2,3-b]pyridine]",A (>1.0 μM),–,–
"COc1ccccc1-c1c[nH]c2ncc(Br)c(Cl)c12 [5-Bromo-4-chloro-3-(2-methoxy-phenyl)-1H-pyrrolo[2,3-b]pyridine]",C (0.1-0.01 μM),–,–

# — patent publication US8158647B2, “Substituted pyrrolopyridines and pyrazolopyridines as kinase modulators” (SGX Pharmaceuticals, Inc., priority 2007, dated 2012)
